Counter-ions that a name gives are not always drawn.
Each molecule was assayed against T1, human MRGPRX2 (Homo sapiens, UniProt Q96LB1) (assay: Ca2+ mobilization assay (FLIPR TETRA): inhibition of Cortistatin-14 mediated MRGPRX2 activation). Conditions: not given.
T1 sequence (Q96LB1 1-330): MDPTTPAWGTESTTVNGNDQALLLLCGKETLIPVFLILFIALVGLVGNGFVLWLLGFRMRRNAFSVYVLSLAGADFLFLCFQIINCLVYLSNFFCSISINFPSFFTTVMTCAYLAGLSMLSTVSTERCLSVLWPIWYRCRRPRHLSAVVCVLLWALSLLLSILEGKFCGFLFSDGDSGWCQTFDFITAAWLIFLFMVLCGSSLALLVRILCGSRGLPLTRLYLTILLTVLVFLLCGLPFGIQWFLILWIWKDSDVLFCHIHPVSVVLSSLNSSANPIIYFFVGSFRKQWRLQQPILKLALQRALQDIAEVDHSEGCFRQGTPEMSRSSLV

IC50 [nM]	SMILES
10 to 100	C[C@@H](C(=O)Nc1ccc(OCC2CC2)nn1)N1CCC(F)(F)[C@@H](c2ccc(=O)[nH]n2)C1 [Example 146, (S)-N-(6-(cyclopropylmethoxy)pyridazin-3-yl)-2-((R)-4,4-difluoro-3-(6-oxo-1,6-dihydropyridazin-3-yl)piperidin-1-yl)propanamide]
100 to 3160	CC(C(=O)Nc1cc(F)c(F)cn1)N1CCC(F)(F)[C@@H](c2ccc(=O)[nH]c2)C1 (stereo partly drawn) [Example 39, 2-((S)-4,4-difluoro-3-(6-oxo-1,6-dihydropyridin-3-yl)piperidin-1-yl)-N-(4,5-difluoropyridin-2-yl)propanamide]
≤ 10	CNCc1cc([C@H]2CN([C@@H](C)C(=O)Nc3cnc(Oc4ccc(F)cc4F)cn3)CCC2(F)F)c[nH]c1=O [Example 244, (S)-2-((S)-4,4-difluoro-3-(5-((methylamino)methyl)-6-oxo-1,6-dihydropyridin-3-yl)piperidin-1-yl)-N-(5-(2,4-difluorophenoxy)pyrazin-2-yl)propanamide]
100 to 3160	CCn1cc(C2CN([C@@H](C)C(=O)Nc3ccc(F)cn3)CCC2(F)F)ccc1=O (stereo partly drawn) [Example 188, (2S)-2-(3-(1-ethyl-6-oxo-1,6-dihydropyridin-3-yl)-4,4-difluoropiperidin-1-yl)-N-(5-fluoropyridin-2-yl)propanamide]
100 to 3160	C[C@@H](C(=O)Nc1ccc(C(=O)c2ccc(F)cc2)cn1)N1CCC(F)(F)[C@@H](c2cc[n+]([O-])cc2)C1 [Example 128, 4-((S)-4,4-difluoro-1-((S)-1-((5-(4-fluorobenzoyl)pyridin-2-yl)amino)-1-oxopropan-2-yl)piperidin-3-yl)pyridine 1-oxide]
100 to 3160	C[C@@H](C(=O)Nc1ccc(OCC2CC2)nn1)N1CCC(F)(F)C(c2c[nH]c(=O)c(CO)c2)C1 (stereo partly drawn) [Example 154, (S)-N-(6-(cyclopropylmethoxy)pyridazin-3-yl)-2-(4,4-difluoro-3-(5-(hydroxymethyl)-6-oxo-1,6-dihydropyridin-3-yl)piperidin-1-yl)propanamide]
10 to 100	C[C@@H](C(=O)Nc1ccc(C(F)(F)c2ccc(F)cc2)cn1)N1CCC(F)(F)[C@@H](c2ccc(=O)[nH]c2)C1 [Example 102, (S)-N-(5-(difluoro(4-fluorophenyl)methyl)pyridin-2-yl)-2-((S)-4,4-difluoro-3-(6-oxo-1,6-dihydropyridin-3-yl)piperidin-1-yl)propanamide]
100 to 3160	CC(Oc1ccc(NC(=O)C(C)N2CCC(F)(F)[C@@H](c3ccc(=O)[nH]c3)C2)nc1)C1CC1 (stereo partly drawn) [Example 31, N-(5-(1-cyclopropyl-ethoxy)pyridin-2-yl)-2-((S)-4,4-difluoro-3-(6-oxo-1,6-dihydropyridin-3-yl)piperidin-1-yl)propanamide]
100 to 3160	C[C@@H](C(=O)Nc1ccc(OCC2CC2)cn1)N1CCC[C@@H](c2ccc(=O)[nH]n2)C1 (single isomer, unassigned) [Example 185]
≤ 10	C[C@@H](C(=O)Nc1ccc(OCC2CC2)nn1)N1CCC(F)(F)[C@@H](c2cc[n+]([O-])c(CC(F)(F)F)c2)C1 [Example 220]

Further lines, the molecule ahead of its results:

SMILES	IC50 [nM]
C[C@@H](C(=O)Nc1ccc(Oc2ccc(F)c(F)c2)cn1)N1CCC(F)(F)[C@@H](c2ccc(=O)[nH]c2)C1 [Example 268, (S)-2-((S)-4,4-difluoro-3-(6-oxo-1,6-dihydropyridin-3-yl)piperidin-1-yl)-N-(5-(3,4-difluorophenoxy)pyridin-2-yl)propanamide]	≤ 10
C[C@@H](C(=O)Nc1ccc(OC2CCC2)nn1)N1CCC(F)(F)[C@@H](c2ccc(=O)[nH]c2)C1 [Example 100, (S)-N-(6-cyclobutoxy-pyridazin-3-yl)-2-((S)-4,4-difluoro-3-(6-oxo-1,6-dihydropyridin-3-yl)piperidin-1-yl)propanamide]	100 to 3160
C[C@H]1C[C@@H](c2ccc(=O)[nH]n2)CN([C@@H](C)C(=O)Nc2ccc(F)cn2)C1 [Example 162, (S)—N-(5-fluoropyridin-2-yl)-2-((3S,5R)-3-methyl-5-(6-oxo-1,6-dihydropyridazin-3-yl)piperidin-1-yl)propanamide]	100 to 3160
C[C@@H](C(=O)Nc1ccc(Cl)cn1)N1CCC(F)(F)[C@@H](c2c[nH]c(=O)c(N)n2)C1 [Example 107, (S)-2-((R)-3-(6-amino-5-oxo-4,5-dihydropyrazin-2-y1)-4,4-difluoropiperidin-l-y1)-N-(5-chloropyridin-2-yl)propanamide]	100 to 3160
C[C@@H](C(=O)Nc1ccc(Oc2ccccc2)nn1)N1CCC(F)(F)[C@@H](c2ccc(=O)[nH]c2)C1 [Example 19, 2-((S)-4,4-difluoro-3-(6-oxo-1,6-dihydropyridin-3-yl)piperidin-1-yl)-N-(6-phenoxy-pyridazin-3-yl)propanamide]	100 to 3160
C[C@@H](C(=O)Nc1cnc(Oc2ccc(F)cc2F)cn1)N1CCC(F)(F)[C@@H](c2cc[n+]([O-])cc2)C1 [Example 132, 4-((S)-1-((S)-1-((5-(2,4-difluorophenoxy)pyrazin-2-yl)amino)-1-oxopropan-2-yl)-4,4-difluoropiperidin-3-yl)pyridine 1-oxide]	≤ 10
C[C@@H](C(=O)Nc1ccc(OCC2CC2)nn1)N1CCC(F)(F)C(c2ccc(=O)n(CCS(C)(=O)=O)c2)C1 (stereo partly drawn) [Example 191, (2S)-N-(6-(cyclopropylmethoxy)pyridazin-3-yl)-2-(4,4-difluoro-3-(1-(2-(methylsulfonyl)ethyl)-6-oxo-1,6-dihydropyridin-3-yl)piperidin-1-yl)propanamide]	100 to 3160
C[C@@H](C(=O)Nc1ccc(F)cn1)N1CCC(F)(F)[C@@H](c2cc[n+]([O-])c(CC(F)(F)F)c2)C1 [Example 219]	10 to 100
C[C@@H](C(=O)Nc1cc2ccccc2cn1)N1CCC(F)(F)[C@@H](c2ccc(=O)[nH]c2)C1 [Example 34, (S)-2-((S)-4,4-difluoro-3-(6-oxo-1,6-dihydropyridin-3-yl)piperidin-1-yl)-N-(isoquinolin-3-yl)propanamide]	100 to 3160
C[C@@H](C(=O)Nc1ccc(Oc2ccc(F)cc2CO)cn1)N1CCC(F)(F)[C@@H](c2ccc(=O)[nH]c2)C1 [Example 271, (S)-2-((S)-4,4-difluoro-3-(6-oxo-1,6-dihydropyridin-3-yl)piperidin-1-yl)-N-(5-(4-fluoro-2-(hydroxymethyl)phenoxy)pyridin-2-yl)propanamide]	10 to 100
C[C@@H](C(=O)Nc1ccc(Oc2ccc(F)cc2F)cn1)N1CCC(F)(F)[C@@H](c2cc[n+]([O-])cc2)C1 [Example 117, 4-((S)-1-((S)-1-((5-(2,4-difluorophenoxy)pyridin-2-yl)amino)-1-oxopropan-2-yl)-4,4-difluoropiperidin-3-yl)pyridine 1-oxide]	≤ 10
C[C@@H](C(=O)Nc1ccc(F)cn1)N1CCC(F)(F)C(c2cc(N)c(=O)n(CC(F)(F)F)c2)C1 (stereo partly drawn) [Example 187, (2S)-2-(3-(5-amino-6-oxo-1-(2,2,2-trifluoroethyl)-1,6-dihydropyridin-3-yl)-4,4-difluoropiperidin-1-yl)-N-(5-fluoropyridin-2-yl)propanamide]	3160 to 31600
CC(C(=O)Nc1ccc(Cc2ccccn2)cn1)N1CCC(F)(F)[C@@H](c2ccc(=O)[nH]c2)C1 (stereo partly drawn) [Example 57, 2-((S)-4,4-difluoro-3-(6-oxo-1,6-dihydropyridin-3-yl)piperidin-1-yl)-N-(5-(pyridin-2-ylmethyl)pyridin-2-yl)propanamide hydrochloride]	100 to 3160
C[C@@H](C(=O)Nc1ccc(Oc2ccc(F)cc2F)cn1)N1CCC(F)(F)[C@@H](c2c[nH]c(=O)c([C@@H](N)C(F)(F)F)c2)C1 (single isomer, unassigned) [Example 236]	≤ 10
C[C@@H](C(=O)Nc1ccc(F)cn1)N1CCC(F)(F)[C@@H](c2ccc(=O)n(CC(F)F)c2)C1 [Example 193]	≤ 10
C[C@@H](C(=O)Nc1ccc(F)cn1)N1CCC(F)(F)[C@@H](c2ccc(=O)[nH]n2)C1 [Example 148, (S)-2-((R)-4,4-difluoro-3-(6-oxo-1,6-dihydropyridazin-3-yl)piperidin-1-yl)-N-(5-fluoropyridin-2-yl)propanamide]	100 to 3160
C[C@@H](C(=O)Nc1ccc(Oc2c(F)cc(F)cc2F)cn1)N1CCC(F)(F)[C@@H](c2cc[n+]([O-])cc2)C1 [Example 123, 4-((S)-4,4-difluoro-1-((S)-1-oxo-1-((5-(2,4,6-trifluorophenoxy)pyridin-2-yl)amino)propan-2-yl)piperidin-3-yl)pyridine 1-oxide]	≤ 10
C[C@@H](C(=O)Nc1ccc(Oc2ccc(F)cc2)cn1)N1CCC(F)(F)[C@@H](c2c[nH]c(=O)c(N)n2)C1 [Example 108, (S)-2-((R)-3-(6-amino-5-oxo-4,5-dihydropyrazin-2-y1)-4,4-difluoropiperidin-1-y1)-N-(5-(4-fluorophenoxy)pyridin-2-yl)propanamide]	≤ 10
CC(C(=O)Nc1ccc(OCC2CC2(F)F)cn1)N1CCC(F)(F)[C@@H](c2ccc(=O)[nH]c2)C1 (stereo partly drawn) [Example 36, 2-((S)-4,4-difluoro-3-(6-oxo-1,6-dihydropyridin-3-yl)piperidin-1-yl)-N-(5-((2,2-difluorocyclo-propyl)methoxy)pyridin-2-yl)propanamide]	100 to 3160
C[C@@H](C(=O)Nc1ccc(OCC2CC2)cn1)N1CCC(F)(F)[C@@H](c2ccc(=O)n(CC(F)(F)F)c2)C1 (single isomer, unassigned) [Example 2]	≤ 10
C[C@@H](C(=O)Nc1ccc(OCC2CC2)nn1)N1CCC(F)(F)[C@@H](c2c[nH]c(=O)cn2)C1 [Example 134, (S)-N-(6-(cyclopropylmethoxy)pyridazin-3-yl)-2-((R)-4,4-difluoro-3-(5-oxo-4,5-dihydropyrazin-2-yl)piperidin-1-yl)propanamide]	10 to 100

Same assay, conditions: […]; agonist Cortistatin-14 at 4×EC50; 30 min incubation at 37° C.; mean of a minimum of 2 experiments

SMILES	pIC50
C[C@@H](C(=O)Nc1cnc(Oc2ccc(F)cc2F)cn1)N1CCC(F)(F)[C@@H](c2cc[n+]([O-])cc2)C1 [Example 132, 4-((S)-1-((S)-1-((5-(2,4-difluorophenoxy)pyrazin-2-yl)amino)-1-oxopropan-2-yl)-4,4-difluoropiperidin-3-yl)pyridine 1-oxide]	8.6
